Test results reported in patent publication US7348330B2, “1-azabicyclo [2,2,2] octan-3-one derivatives” (Aprea AB, priority 2000, dated 2008).

Experiments:
[1] = molecular target: T1, endogenous Trp-282 mutant p53 (Homo sapiens, UniProt P04637, R282W); assay: Band shift assay, BL-60 cell extracts; assay type: biochemical; details: cell extracts from Burkitt lymphoma BL-60 cells
T1 construct: endogenous Trp-282 mutant p53 in cell extracts from Burkitt lymphoma BL-60 cells; endogenous in cells; host or cells: Burkitt lymphoma BL-60 cells (cell extract)

[2] = Toxicity assessment in SCID mice; assay type: in vivo
Experimental: (§1) All animal studies were approved by the local animal ethical committee and animal care was in accordance with institutional guidelines. For toxicity assessment, 12 SCID mice (average weight 25 g) were divided in 4 groups. […] Control animals were injected with PBS. We measured weights of the mice for 1 month after the last injection. […] After 3 days the mice were divided into 4 groups. […] Injections were performed twice daily for 3 days. Tumor volume was measured during 2 months.
(§2) In the untreated control group, the average tumor volume after 59 days was 555.7±284 mm^3 (means±SE, n=3).

Saos-2-His-273 cells = assay: Anti-tumor activity, xenograft in SCID mice; assay type: in vivo; details: after 59 days
Experimental: SCID mice were injected with Saos-2-His-273 cells. […] Tumor volumes were measured once in three days for two months.
as §1, §2

## CCC(=O)OCN1C(=O)C=CC1=O [MIRA-1]
[1]
  restoration of sequence-specific DNA binding: able to restore

## O=C1C2CCN(CC2)C1(CO)CO [PRIMA-1, 2,2-bis(hydroxymethyl)-1-azabicyclo[2,2,2]octan-3-one]
[2]; 100 mg/kg i.v., after one month of observation, means±SE
  average weight of mice: 20 ± 0.2 g
[2]; intravenous injections, 1, 10 and 100 mg/kg daily for 5 days
  changes in behavior or weight: did not cause any obvious changes in behavior or weight
Saos-2-His-273 cells; 20 mg/kg i.v. twice a day for three days
  average tumor volume: 53±48.5 mm^3
Saos-2-His-273 cells; intratumor 20 mg/kg twice a day for three days
  average tumor volume: 5.3±2.7 mm^3
Saos-2-His-273 cells; intravenous 100 mg/kg twice a day for three days
  average tumor volume: 11.7±8 mm^3
